Consider five molecules from publication PMC10465493, “Osteogenic induction of asiatic acid derivatives in human periodontal ligament stem cells” (Scientific Reports, 2023).

In brackets after ≈: the same amount, converted by molar mass. Read-outs that look alike come from different tables or passages of the source. Bounds are passed on as bounds.

Broadly, the solubility is how much of the substance goes into solution per volume. Usually viability stands for the share of living cells, or the viability signal relative to a control.

Data set [1] can be described thus: Aqueous solubility by gravimetric method. It counts as physicochemical. Conditions: thermodynamic from solid, ultrapure water, shaken 24 h, n = 6. The method, then: Aqueous solubility of AA and its derivatives were screened using a gravimetric method. Briefly, AA and the derivatives were dissolved in an excess amount in ultrapure water, and the samples were shaken at room temperature and 37 °C for 24 h. After that, the samples were centrifuged to separate the undissolved compounds. The specific volume of supernatants was then collected and lyophilised. The residual solid after lyophilisation was weighed using a 7-digit balance (XPR2u, Mettler Toledo, OH, USA), and the maximum solubility in water at the different temperature was calculated based on the volume of the collected solution of the compounds. […]

For data set [2] the following is noted: octanol/water, cited from earlier work.
Data set [3] has as its system hPDLSCs. The data set can be described thus: Cell viability, PrestoBlue resazurin assay. Type of data set: cell-based, human. The note with it: 300 nM, up to 5 days. The method, then:
(§1) Stock solutions of AA, 501, 502, 503, and 506 were prepared in DMSO at the concentration of 100 µM, before diluting in culture medium to the desired concentration. Cell viability after exposure to the drugs was investigated using a PrestoBlue™ resazurin assay according to the manufacturer’s protocol. Cells with a density of 60,000 cells/well were plated in 24 well-plates and cultured in a normal growth medium for 24 h. Then the cells were treated with 300 nM AA and solutions of, 501, 502, 503, and 506. After 24-h and 5-day incubation, the cultures were treated with resazurin working solution, and the fluorescence intensity at an emission wavelength of 590 nm was measured with excitation of 560-nm wavelength using a microplate reader (Synergy H1, Biotek multi-mode reader, Winooski, VT, USA). Untreated cells were used as the control, and the experiment was performed on different cell lines of at least five donors.
In general terms: Alamar Blue is a resazurin reagent that responds to reducing activity.

A short description of data set [4]: Cell viability, PrestoBlue resazurin assay. Type of data set: cell-based, human. Conditions: human, hPDLSCs, 300 nM; for viability at 24 h, 0.3 µM: day 1, general medium. The method, then:
as §1

For data set [5], the system named is hPDLSCs. The data set can be described thus: mRNA expression of osteogenic marker genes by quantitative RT-PCR. It counts as cell-based, human. The note with it: for mRNA expression of all markers (BMP2, RUNX2, COL1A1, WNT3A): 100 nM (10 nM for 503). The method, then:
Cells were seeded in 24 well-plates at a density of 60,000 cells/well and treated with AA or the derivatives at different concentrations. The media was changed every other day to ensure the continuous activities of AA derivatives. For Erk inhibition experiments, cells were pretreated with 2.5 nM Erk inhibitor (cat. No. 328006, Calbiochem, San Diego, CA, USA) for 2 h prior to the treatment of AA derivatives. At each time point, the total RNA was extracted using TRIzol® reagent following the standard protocol, and the RNA content and purity were measured using a microvolume spectrophotometer (NanoDrop™ One, Thermo Fisher Scientific, USA). Then, 1 μg of RNA sample was reverse-transcribed into complementary DNA (cDNA) using Improm II reverse transcription system (Promega, USA). The expression levels of the target genes were detected by real-time polymerase chain reaction using the SYBR green detection system (FastStart Essential DNA Green Master, Roche Diagnostics, Switzerland) on the MiniOpticon™ RT-PCR system (Bio-Rad, USA). The quantitative RT-PCR was carried out using a LightCycler® 96 (Roche Diagnostics, Switzerland). The transcript expression of GAPDH was used as the internal control. The relative gene expression analysis was performed using the CFX Manager software (Bio-Rad, USA). The expression value was normalised using an expression value of cellular housekeeping gene, GAPDH, and the control was considered for each respective day.

The subject of a further data set is osteoclastogenesis. More on the design: method as in PMID 32292339. The note with it: cited from earlier work.
The subject of data set [6] is hPDLSCs. The data set can be described thus: Von Kossa and Alizarin red S staining for mineralisation. Type of data set: cell-based, human. Conditions: 300 nM, 14 days, general medium, compared to osteogenic medium (positive control). The method, then: In vitro mineralisation was visualised following calcium staining using Von Kossa’s method and Alizarin red S staining according to an established protocol. Briefly, on day 14, the cells were washed and fixed with cold methanol for 10 min before rinsing with deionised water. Von Kossa staining was performed by treating the fixed cells with 5%w/v silver nitrate solution for 30 min. For Alizarin Red S staining, the Alizarin Red S solution (0.5% w/v, pH 4.2) was incubated with the fixed cells for 5 min. The mineralised nodule formation was observed under a phase-contrast microscope (Nikon ECLIPSE Ts2, Nikon, USA). Cells cultured in a normal growth medium were used as the negative control. The cells cultured in an osteogenic medium (DMEM supplemented with […] ascorbic acid, 100 nM dexamethasone, and 10 mM β-glycerophosphate) were regarded as the positive control.

Data set [7] concerns hPDLSCs. The data set can be described thus: Alkaline phosphatase (ALP) activity assay. It counts as cell-based, human. Conditions: 100, 200, 300 nM, D3, normalised to total cellular protein. How it is done: At the designated time points, the ALP activity was measured. Cells treated with different concentrations of AA derivatives were collected, washed with PBS, and lysed with alkaline lysis buffer. The cell lysate was incubated with a mixture containing 2 mg/mL p-nitrophenyl phosphate, 0.1 M 2-amino-2-methyl-1-propanol and 2 mM MgCl2. After incubation at 37 °C for 30 min, the reaction was terminated by addition of 50 mM NaOH. The absorbance at 410 nm was measured, and the quantitative data was normalised by the amount of total cellular protein.

In data set [8] the test system is hPDLSCs. The data set can be described thus: BMP2 protein expression by ELISA. It counts as cell-based, human. Conditions: 100 to 300 nM, D1 and D3, general medium. The method, then:
The expression levels of targeted proteins were analysed by a sandwich ELISA assay. Firstly, the cells were lysed, and the amount of protein was analysed using a Bio-Rad BCA protein assay kit (Bio‐Rad Laboratories, USA). Following the standard protocol, the target proteins were analysed using an ELISA kit (R&D Systems, USA).
In general terms: In an ELISA, binding on a coated surface is turned into a signal by an enzyme label.

Where [9] appears, read: 37 °C, read-out: Experimental solubility in water at 37 °C (average ± SD).
[10] abbreviates: room temperature, read-out: Experimental solubility in water at room temperature (average ± SD).
Setting [11] is: 300 nM, days 1 and 3, general medium.

On to `C[C@H]1[C@H](C)CC[C@]2(C(=O)O)CC[C@]3(C)C(=CC[C@@H]4[C@@]5(C)C[C@@H](O)[C@H](O)[C@@](C)(CO)[C@@H]5CC[C@]43C)[C@H]12` [AA, Asiatic acid], for which the solubility at 24 h in data set [1] (setting [9]) was determined as 723 ± 184 µg/mL (≈ 1480 µM); in [1] (setting [10]), 541 ± 76.8 µg/mL (≈ 1110 µM). For the same molecule, the “Theoretical log P” value is listed as 5.8 in data set [2] (ref 33) and 5.7 in data set [2] (ref 38, 39). Further, in the data set with hPDLSCs [3], the “Toxicity to hPDLSCs” value is given as “no significant toxicity”. In data set [4], the viability at 24 h, 0.3 µM is over 90%. In addition, the “mRNA expression of all markers (BMP2, RUNX2, COL1A1, WNT3A)” value (“mRNA expression of all markers” below) with hPDLSCs [5] (24 h, normal growth medium) is reported as “no observable change”. For the same molecule, in the data set on osteoclastogenesis, the “Concentration required to inhibit osteoclastogenesis or bone loss” value is “up to 20 µM”.

Consider `CC(=O)OCC1(C)C(OC(C)=O)C(OC(C)=O)CC2(C)C1CCC1(C)C2CC=C2C3C(C)C(C)CCC3(C(=O)O)CCC21C` (stereo not drawn) [compound 501], for which the solubility at 24 h came out at 654 ± 95.5 µg/mL (≈ 1060 µM) in [1] (setting [9]) and 272 ± 31.5 µg/mL (≈ 442 µM) in data set [1] (setting [10]). The viability at 5 days, 0.3 µM in data set [4] (day 5, general medium) was under 75%. Further, in the data set with hPDLSCs [5] (24 h, normal growth medium), the “mRNA expression of all markers” value is reported as “no observable change”.

On to `CCCCOC(=O)C12CCC(C)C(C)C1C1=CCC3C4(C)CC(OC(C)=O)C(OC(C)=O)C(C)(COC(C)=O)C4CCC3(C)C1(C)CC2` (stereo not drawn) [compound 502], for which the solubility at 24 h in [1] (setting [9]) came out at 14.5 ± 4.7 µg/mL (≈ 21.6 µM); in data set [1] (setting [10]) it was 10 ± 1.5 µg/mL (≈ 14.9 µM).

As to `CC(=O)OC[C@@]1(C)C2CC[C@]3(C)C(CC=C4[C@@H]5[C@@H](C)[C@H](C)CC[C@]5(C(=O)NCCCN(C)C)CC[C@]43C)[C@@]2(C)C[C@@H](OC(C)=O)[C@@H]1OC(C)=O` (stereo partly drawn) [compound 503], the solubility at 24 h came out at 331 ± 82.6 µg/mL (≈ 473 µM) in [1] (setting [9]) and 164 ± 28.2 µg/mL (≈ 235 µM) in data set [1] (setting [10]). In addition, the viability at 24 h, 0.3 µM in [4] was under 40%. The “mRNA expression of all markers” value in the data set on hPDLSCs [5] (24 h, normal growth medium) is on record as “no observable change”.

For `C[C@H]1[C@H](C)CC[C@]2(C(=O)NCCCN(C)C)CC[C@]3(C)C(=CCC4[C@@]5(C)C[C@@H](O)[C@H](O)[C@@](C)(CO)C5CC[C@]43C)[C@H]12` (stereo partly drawn) [compound 506], in data set [1] (setting [9]), the solubility at 24 h turned out to be 852 ± 85.6 µg/mL (≈ 1490 µM). Moreover, in data set [1] (setting [10]), the solubility at 24 h stood at 810 ± 36 µg/mL (≈ 1410 µM). Further, in the data set with hPDLSCs [3], the “Toxicity to hPDLSCs” value was “no significant toxicity”. Further, the “Tissue mineralisation (calcium deposition)” value with hPDLSCs [6] was “comparable to those same cells cultured in an osteogenic medium”. In the data set on hPDLSCs [5] (100 nM, 24 h, normal growth medium), the “BMP2 mRNA expression” value is reported as “high expression”. Moreover, in the data set on hPDLSCs [5] (300 nM 506, pretreated with Erk inhibitor, general medium), the “WNT3A expression with Erk inhibitor” value was “inhibited”. In the data set on hPDLSCs [5] (300 nM, day 1), the BMP2 expression entry is “High expression”. For the same molecule, in the data set with hPDLSCs [5] (300 nM, day 3), the BMP2 expression result is reported as “declining to a control level” and the WNT3A transcript level entry is “elevated transcript level”. In the data set with hPDLSCs [5] (setting [11]), the COL1A1 expression level entry is on record as “no observable change” and the RUNX2 expression level entry is listed as “no observable change”. In addition, in the data set on hPDLSCs [5] (300 nM, general medium), the “ALP expression level compared to control” value is reported as “enhanced”, the “BMP2 expression level compared to control” value is “enhanced”, the “IBSP expression level compared to control” value is listed as “enhanced” and the “OSX expression level compared to control” value is given as “enhanced”. For the same molecule, the BMP2 gene expression entry with hPDLSCs [5] (100 to 300 nM, first day after exposure, general medium) was “elevated transcript level at the lower concentrations (100 and 200 nM)”. Besides, the ALP activity entry with hPDLSCs [7] is given as “dose-dependent increase”. The BMP2 protein expression entry in the data set on hPDLSCs [8] was “dose-dependent increase”.
